Reference: paper PMC5933338 (Drug Design, Development and Therapy, 2018)

Molecular target: wild type (WT) A/M2 protein (Influenza A virus, UniProt P0DOF5)
Experiment: cell-based

Chain of wild type (WT) A/M2 protein (P0DOF5 whole entry, looked up): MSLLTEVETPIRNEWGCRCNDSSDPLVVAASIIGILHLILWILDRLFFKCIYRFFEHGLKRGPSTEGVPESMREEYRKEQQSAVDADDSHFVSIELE

For `CCCCNC(C)C12CC3CC(CC(C3)C1)C2` (centres unmarked) [Compound 5a, (1-Adamantan-1-yl-ethyl)-butyl-amine], the “M2 WT inhibitory activity relative to that of 4c” value (100 µM, 5a versus rimantadine dimer 4c) was “approximately fourfold” and the inhibition at 100 µM (read-out: percentage inhibition of A/M2 current (WT)) was 40%.
